Experiment: refractive index (other wavelength) (dimensionless); xn = mol fraction of the nth substance listed
Conditions: 101.3 kPa, Liquid, Wavelength=632.8 nm, Method described in references 3 and 4 of the article

N#Cc1ccccc1 [benzonitrile] + CCCCCCCCCCCCCCCC
Conditions | refractive index
294.62 K, x1 = 1 | 1.5246
295.4 K, x1 = 0.0997 | 1.4353
296.2 K, x1 = 0.1982 | 1.4385
296.22 K, x1 = 0.3022 | 1.4432
296.49 K, x1 = 0.8855 | 1.499
296.97 K, x1 = 1 | 1.5235
297.19 K, x1 = 0.0997 | 1.4346
297.59 K, x1 = 0.1982 | 1.438
298.03 K, x1 = 0.3972 | 1.4472
298.19 K, x1 = 0.3022 | 1.4423
298.57 K, x1 = 0.8855 | 1.498
299.03 K, x1 = 0.0997 | 1.4338
299.08 K, x1 = 1 | 1.5224
299.56 K, x1 = 0.3972 | 1.4466
299.75 K, x1 = 0.3022 | 1.4416
299.78 K, x1 = 0.1982 | 1.437
300.77 K, x1 = 0.0997 | 1.433
301.05 K, x1 = 0.3022 | 1.441
301.05 K, x1 = 0.8855 | 1.4969
301.17 K, x1 = 0.1982 | 1.4365
301.26 K, x1 = 0.3972 | 1.4459
301.39 K, x1 = 1 | 1.5213
301.64 K, x1 = 0.1982 | 1.4362
302.7 K, x1 = 0.0997 | 1.4323
302.75 K, x1 = 0.3972 | 1.4452
302.86 K, x1 = 0.3022 | 1.4403
302.96 K, x1 = 0.4976 | 1.4519
303.42 K, x1 = 1 | 1.5203
303.45 K, x1 = 0.7947 | 1.481
303.59 K, x1 = 0.8855 | 1.4957
303.7 K, x1 = 0.4976 | 1.4515
303.82 K, x1 = 0.1982 | 1.4353
304.08 K, x1 = 0.0997 | 1.4317
304.21 K, x1 = 0.3972 | 1.4446
304.25 K, x1 = 0.3022 | 1.4397
304.25 K, x1 = 0.4976 | 1.4512
304.4 K, x1 = 0.7947 | 1.4806
304.69 K, x1 = 0.595 | 1.4585
304.73 K, x1 = 0.4976 | 1.451
305.22 K, x1 = 0.7947 | 1.4802
305.41 K, x1 = 0.3972 | 1.444
305.44 K, x1 = 0.6854 | 1.4668
305.47 K, x1 = 0.595 | 1.4582
305.66 K, x1 = 0.1982 | 1.4346
305.66 K, x1 = 0.4976 | 1.4507
305.86 K, x1 = 0.0997 | 1.4309
305.86 K, x1 = 0.3022 | 1.439
305.89 K, x1 = 0.7947 | 1.4799
305.92 K, x1 = 1 | 1.5191
305.98 K, x1 = 0.8855 | 1.4946
306.25 K, x1 = 0.6854 | 1.4665
306.37 K, x1 = 0.595 | 1.4578
306.66 K, x1 = 0.6854 | 1.4663
306.68 K, x1 = 0.7947 | 1.4795
307.36 K, x1 = 0.595 | 1.4574
307.66 K, x1 = 0.6854 | 1.4658
307.86 K, x1 = 0.8855 | 1.4937
308.18 K, x1 = 0.595 | 1.457
308.42 K, x1 = 0.6854 | 1.4655
